{
  "source": "patent US20110015068A1",
  "about": "“Herbicidal Compositions Comprising Pyroxasulfone V” (BASF SE, priority 2008, published 2011)",
  "format_in_all_cases": "in vivo",
  "key": {"Setaria italica [1]": {"system": "Setaria italica", "assay": "pre-emergence greenhouse test, SETIT", "settings": "Setaria italica, 25 g ai/ha, read-out: observed % activity", "description": "(§1) For the pre-emergence treatment, directly after sowing the active compounds, which had been suspended or emulsified in water, were applied by means of finely distributed nozzles. The containers were irrigated gently to promote germination and growth and subsequently covered with transparent plastic hoods until plant had rooted. This cover caused uniform germination of the tests plants, unless this was adversely affected by active compounds.\n(§2) The respective herbicides A and/or safener were formulated as 10% by weight strength suspension concentrate and introduced to the spray liquor with the amount of solvent system used for applying the active compound. Herbicide B and/or safener were used as commercially available formulations and introduced to the spray liquor with the amount of solvent system used for applying the active compound. In the examples, the solvent used was water.\n(§3) The test period extended over 21 days. During this time, the plants were tended, and their response to the treatments with active compound was evaluated.\n(§4) The evaluation for the damage caused by the chemical compositions was carried out using a scale from 0 to 100%, compared to the untreated control plants. Here, 0 means no damage and 100 means complete destruction of the plants."}, "Alopecurus myosuroides": {"system": "Alopecurus myosuroides", "assay": "pre-emergence greenhouse test, ALOMY", "settings": "Alopecurus myosuroides, 50 g ai/ha, read-out: observed % activity", "description": "as §1, §2, §3, §4"}, "Ipomoea purpurea": {"system": "Ipomoea purpurea", "assay": "pre-emergence greenhouse test, PHBPU", "settings": "Ipomoea purpurea, read-out: observed % activity; for inhibition at 25 g/ha: 25 g ai/ha; for inhibition at 50 g/ha: 50 g ai/ha", "description": "as §1, §2, §3, §4"}, "Kochia scoparia": {"system": "Kochia scoparia", "assay": "pre-emergence greenhouse test, KCHSC", "settings": "Bassia scoparia, 25 g ai/ha, read-out: observed % activity", "description": "as §1, §2, §3, §4"}, "Setaria lutescens": {"system": "Setaria lutescens", "assay": "post-emergence greenhouse test, SETLU", "settings": "Setaria pumila, 13 g ai/ha, read-out: observed % activity", "description": "(§5) For the post-emergence treatment, the test plants were first grown to a height of 3 to 20 cm, depending on the plant habit, and only then treated. Here, the herbicidal compositions were suspended or emulsified in water as distribution medium and sprayed using finely distributing nozzles.\nas §2, §3, §4"}, "Setaria italica [2]": {"system": "Setaria italica", "assay": "post-emergence greenhouse test, SETIT", "settings": "Setaria italica, read-out: observed % activity; for inhibition at 50 g/ha: 50 g ai/ha; for inhibition at 100 g/ha: 100 g ai/ha", "description": "as §5, §2, §3, §4"}, "Polygonum convolvulus": {"system": "Polygonum convolvulus", "assay": "post-emergence greenhouse test, POLCO", "settings": "for inhibition at 25 g/ha / inhibition at 50 g/ha / inhibition at 100 g/ha: Fallopia convolvulus, read-out: observed % activity; for inhibition at 25 g/ha: 25 g ai/ha; for inhibition at 50 g/ha: 50 g ai/ha; for inhibition at 100 g/ha: 100 g ai/ha", "description": "as §5, §2, §3, §4"}, "Setaria faberii": {"system": "Setaria faberii", "assay": "post-emergence greenhouse test, SETFA", "settings": "50 g ai/ha, 20 DAT", "description": "as §5, §2, §3, §4"}},
  "note": "Where two headings read alike, the source gives them in different places.",
  "data": [
    {"smiles": "Cn1nc(C(F)(F)F)c(CS(=O)(=O)C2=NOC(C)(C)C2)c1OC(F)F", "note": "[pyroxasulfone, 3-[5-(difluoromethoxy)-1-methyl-3-(trifluoromethyl)pyrazol-4-ylmethylsulfonyl]-4,5-dihydro-5,5-dimethyl-1,2-oxazole]", "values": [
      {"measurement": "inhibition at 25 g/ha", "setting": "Setaria italica [1]; 192 h, 8 DAT", "value": 75, "unit": "%"},
      {"measurement": "inhibition at 25 g/ha", "setting": "Setaria italica [1]; 480 h, 20 DAT", "value": 98, "unit": "%"},
      {"measurement": "inhibition at 50 g/ha", "setting": "Alopecurus myosuroides; 192 h, 8 DAT", "value": 90, "unit": "%"},
      {"measurement": "inhibition at 50 g/ha", "setting": "Alopecurus myosuroides; 480 h, 20 DAT", "value": 98, "unit": "%"},
      {"measurement": "inhibition at 25 g/ha", "setting": "Ipomoea purpurea; 192 h, 8 DAT", "value": 40, "unit": "%"},
      {"measurement": "inhibition at 50 g/ha", "setting": "Ipomoea purpurea; 192 h, 8 DAT", "value": 65, "unit": "%"},
      {"measurement": "inhibition at 25 g/ha", "setting": "Ipomoea purpurea; 480 h, 20 DAT", "value": 50, "unit": "%"},
      {"measurement": "inhibition at 50 g/ha", "setting": "Ipomoea purpurea; 480 h, 20 DAT", "value": 90, "unit": "%"},
      {"measurement": "inhibition at 25 g/ha", "setting": "Kochia scoparia; 192 h, 8 DAT", "value": 40, "unit": "%"},
      {"measurement": "inhibition at 25 g/ha", "setting": "Kochia scoparia; 480 h, 20 DAT", "value": 98, "unit": "%"},
      {"measurement": "inhibition at 13 g/ha", "setting": "Setaria lutescens; 192 h, 8 DAT", "value": 0, "unit": "%"},
      {"measurement": "inhibition at 13 g/ha", "setting": "Setaria lutescens; 480 h, 20 DAT", "value": 65, "unit": "%"},
      {"measurement": "inhibition at 50 g/ha", "setting": "Setaria italica [2]; 192 h, 8 DAT", "value": 25, "unit": "%"},
      {"measurement": "inhibition at 100 g/ha", "setting": "Setaria italica [2]; 192 h, 8 DAT", "value": 45, "unit": "%"},
      {"measurement": "inhibition at 50 g/ha", "setting": "Setaria italica [2]; 480 h, 20 DAT", "value": 75, "unit": "%"},
      {"measurement": "inhibition at 100 g/ha", "setting": "Setaria italica [2]; 480 h, 20 DAT", "value": 80, "unit": "%"},
      {"measurement": "observed activity in % destruction", "setting": "Polygonum convolvulus; 12.5 g ai/ha, 20 DAT, Table 3", "value": 35, "unit": "%"},
      {"measurement": "inhibition at 25 g/ha", "setting": "Polygonum convolvulus; 192 h, 8 DAT", "value": 30, "unit": "%"},
      {"measurement": "inhibition at 50 g/ha", "setting": "Polygonum convolvulus; 192 h, 8 DAT", "value": 50, "unit": "%"},
      {"measurement": "inhibition at 100 g/ha", "setting": "Polygonum convolvulus; 192 h, 8 DAT", "value": 50, "unit": "%"},
      {"measurement": "inhibition at 25 g/ha", "setting": "Polygonum convolvulus; 480 h, 20 DAT", "value": 50, "unit": "%"},
      {"measurement": "inhibition at 50 g/ha", "setting": "Polygonum convolvulus; 480 h, 20 DAT", "value": 50, "unit": "%"},
      {"measurement": "inhibition at 100 g/ha", "setting": "Polygonum convolvulus; 480 h, 20 DAT", "value": 55, "unit": "%"},
      {"measurement": "observed activity in % destruction", "setting": "Setaria faberii; Table 3", "value": 85, "unit": "%"},
      {"measurement": "observed activity in % destruction", "setting": "Setaria faberii; Table 4", "value": 85, "unit": "%"}
    ]}
  ]
}
